This note sets out measurements from patent US20160137990A1, “CRYSTAL STRUCTURE OF BLOOD COAGULATION FACTOR XIIIA” (ZEDIRA GMBH, priority 2012, published 2016).

Where a name gives a salt, the structure may show the parent alone. Starred links: 1 amine or outer side, 2 acyl side, 3 side chain; linkers in the order of their positions; H or OH if unused. Non-standard residues stand in square brackets, D forms with d. Residues, ends and D or L forms follow the SMILES beside them. ξ: configuration not given here. X1 = COC(=O)/C=C/CC[C@H](N[*:1])C(=O)[*:2]; Pro(4-oxo) = O=C1CN[C@H](C(=O)O)C1; Ile(3ξ) = CCC(C)[C@H](N)C(=O)O; Nle = CCCC[C@H](N)C(=O)O

The assay deals with T1, Factor XIIIa (Homo sapiens, UniProt P00488).
T1 construct: purchased Zedira T027 or T007
T1 sequence (P00488 39-732 limits assumed): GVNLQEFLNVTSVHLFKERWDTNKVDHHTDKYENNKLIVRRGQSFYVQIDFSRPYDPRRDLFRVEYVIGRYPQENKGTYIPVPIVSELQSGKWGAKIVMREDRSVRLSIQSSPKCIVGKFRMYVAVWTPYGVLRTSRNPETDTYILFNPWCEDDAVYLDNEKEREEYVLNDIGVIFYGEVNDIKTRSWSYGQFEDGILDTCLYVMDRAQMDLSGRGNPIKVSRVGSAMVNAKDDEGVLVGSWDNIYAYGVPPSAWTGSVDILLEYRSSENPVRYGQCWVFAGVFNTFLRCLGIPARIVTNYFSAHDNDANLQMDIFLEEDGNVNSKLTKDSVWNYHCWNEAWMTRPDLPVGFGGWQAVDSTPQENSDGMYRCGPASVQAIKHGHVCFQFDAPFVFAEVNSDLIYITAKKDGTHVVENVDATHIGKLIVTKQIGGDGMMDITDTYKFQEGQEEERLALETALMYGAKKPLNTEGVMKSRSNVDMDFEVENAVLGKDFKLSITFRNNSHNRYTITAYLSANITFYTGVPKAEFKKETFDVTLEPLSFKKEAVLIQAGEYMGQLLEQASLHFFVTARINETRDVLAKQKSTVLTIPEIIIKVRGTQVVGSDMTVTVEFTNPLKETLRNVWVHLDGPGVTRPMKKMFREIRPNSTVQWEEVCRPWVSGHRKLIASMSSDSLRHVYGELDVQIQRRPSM
The assay can be described thus: Fluorogenic assay kit F001 (Zedira), isopeptidase activity of FXIIIa. In kind it is biochemical. The conditions noted are these: FXIIIa after activation by thrombin; fluorescence ex 313 nm / em 418 nm. The procedure:
Kinetic data of the inhibitor 1 (compound 4) and inhibitor 2 (compound 7) using the commercial fluorogenic assay kit F001 (Zedira) show an IC50 of about 0.11 and 0.08 μM respectively. The fluorogenic assay kit F001 (Zedira) is ready to use. Briefly, recombinant factor XIII (Zedira, product number T027) or human blood derived factor XIII (T007) is reconstituted in water. The enzymatic activity is measured in a suitable buffer (e.g. TRIS buffer pH 7.5 containing calcium chloride, sodium chloride, poly ethylene glycol (PEG), glycine methyl ester, clot inhibitor peptide GPRP-amide) after activation by thrombin. Factor XIIIa cleaves a dark quenching molecule from the side chain of the modified peptide incorporating glycine methyl ester (so called iso-peptidase activity). Subsequently, the fluorescence of an N-terminal coupled dye increases and can be monitored on-line (excitation wavelength 313 nm; emission wavelength 418 nm). The inhibitor of interest can be added after the activation of Factor XIII by thrombin is completed. The IC50 value represents the inhibitor concentration leading to a 50% inhibition of FXIIIa activity.

Take `CCCC[C@H](NC(=O)[C@H](CC/C=C/C(=O)OC)NC(=O)[C@@H](CC(=O)O)NC(C)=O)C(=O)N[C@@H](CCCC)C(=O)N[C@@H](CC(C)C)C(=O)N1CCC[C@H]1C(=O)N[C@@H](Cc1c[nH]c2ccccc12)C(=O)N1CCC[C@H]1C(=O)O` [compound 4, (S)-1-((S)-2-((S)-1-((4R,7S,10S,13S,16S)-10,13-dibutyl-4-(carboxymethyl)-7-((E)-5-methoxy-5-oxopent-3-enyl)-18-methyl-2,5,8,11,14-pentaoxo-3,6,9,12,15-pentaazanonadecanecarbonyl)pyrrolidine-2-carboxamido)-3-(1H-indol-3-yl)propanoyl)pyrrolidine-2-carboxylic acid] (Ac-[dD][X1][Nle][Nle]LPWP-OH): the IC50 (commonly the concentration that gives 50% inhibition) was ~110 nM. For `CCCC[C@H](NC(=O)[C@H](CC/C=C/C(=O)OC)NC(=O)[C@@H]1CC(=O)CN1)C(=O)N[C@H](C(=O)N[C@@H](CC(C)C)C(=O)N1CCC[C@H]1C(=O)N[C@@H](Cc1c[nH]c2ccccc12)C(=O)N1CCC[C@H]1C(=O)O)C(C)CC` (stereo partly drawn) [compound 7, (S)-1-((S)-2-((S)-1-((8S,11S,14S,17S,E)-14-sec-butyl-11-butyl-17-isobutyl-3,9,12,15-tetraoxo-8-((S)-4-oxopyrrolidine-2-carboxamido)-2-oxa-10,13,16-triazaoctadec-4-ene)pyrrolidine-2-carboxamido)-3-(1H-indol-3-yl)propanoyl)pyrrolidine-2-carboxylic acid trifluoroacetate] (H-[Pro(4-oxo)][X1][Nle][Ile(3ξ)]LPWP-OH), the IC50 is ~80 nM.
